Results reported in patent US6291657A (priority 1993, dated 2001).

Legend:
[1] = tested on: β-glucosidases; settings: Legler & Pohl, 1986; cited from earlier work
[2] = tested on: oligosaccharide biosynthesis in HL-60 cells; assay: Glycopeptide analysis by Con A-SEPHAROSE chromatography, HL-60 cells; assay type: cell-based, human
[3] = molecular target: UDP-glucose:N-acylsphingosine glucosyltransferase; assay: Inhibition of UDP-glucose:N-acylsphingosine glucosyltransferase; assay type: biochemical, rat brain, mouse macrophage (WEHI-3B); settings: rat brain or mouse macrophage homogenates; read-out: IC50
[4] = tested on: HL-60 cells; assay: Cytotoxicity in the dose range tested; assay type: cell-based, human
[5] = tested on: N-linked oligosaccharide processing of gp120 in CHO cells (α-glucosidases I and II); settings: previously tested [Karlsson et al.]; cited from earlier work
[6] = tested on: glucocerebrosidase in WEHI-3B cells; settings: WEHI-3B cells in the absence of CBE; cited from earlier work
[7] = tested on: WEHI-3B cell lysosomes; assay: Transmission electron microscopy of lysosomes of CBE treated WEHI-3B cells; assay type: cell-based, murine; settings: transmission electron microscopy (FIG. 6)
[8] = molecular target: α-glucosidase I and II; assay: Inhibition of purified processing α-glucosidase I and II; assay type: biochemical; settings: mixture of purified α-glucosidases I and II
Description: Porcine liver α-glucosidase I and rat liver α-glucosidase II were purified to homogeneity and assayed by conventional procedure using a [^14 C]-glucose labelled Glc3 Man9 GlcNAc2 substrate as previously described by Karlsson et al., J. Biol. Chem. 268, 570-576 (1993).
Enzymes were assayed according to procedure described hereinbefore using
The data from FIG. 8 were […]

[9] = tested on: N-linked oligosaccharide processing of gp120 in CHO cells (α-glucosidases I and II); assay: Endo H sensitivity of gp120 expressed in CHO cells (N-linked oligosaccharide processing); assay type: cell-based, Chinese hamster; settings: 0.5 mM or 5 mM (FIG. 7)
Description: The arrows indicate the molecular weight of the untreated gp120 (120 kDa) and post endo H digestion (60 kDa). An additional band of low molecular weight (approximately 60 kDa) was present in some lanes and is a non-specific protein precipitated by the solid phase matrix.
The culture of CHO cells expressing soluble recombinant gp120 (from Dr. P. Stevens, MRC AIDS Directed Programme Reagent Project) and the radiolabelling of these cells was carried out by conventional procedure as described by Karlsson et al., J. Biol. Chem. 268, 570-576 (1993). Briefly, CHO cells were harvested mechanically, washed three times with phosphate buffered saline, 0.1M pH 7.2 (PBS) and resuspended in methionine- and cysteine-free RPMI-1640 medium (ICN-Flow Laboratories, High Wycombe, Bucks, U.K.) supplemented with 1% dialysed FCS. Cells (10^7 /ml) were preincubated in the presence or absence of NB-DNJ or NB-DGJ for 1 hr prior to the addition of 100 μCi/ml Tran^35 S-label (ICN-Flow) for 4 hr. The supernatants were collected and concentrated tenfold using a 30 kDa cut-off membrane (Amicon, Danvers, Mass., U.S.A.).
Immunoprecipitations were performed by conventional procedure as described by Karlsson supra. Supernatants were incubated with the mAb ABT 1001 monoclonal antibody (American Biotechnologies Inc., Cambridge, Mass., U.S.A.) at 0.5 μg/100 μl of supernatant for 30 min. at room temperature followed by sheep anti-mouse IgG1-coated magnetic beads (Dynal Ltd., Wirral, Merseyside, U.K., 1.2×10^7 beads per sample) for 1 hr. at 4° C. The beads were washed three times with 2% TRITON® X-100 in PBS and three times with PBS. Gp120 was eluted in […] reducing SDS-PAGE sample buffer with heating (95° C., 5 min.). Each sample was divided into two equal aliquots and 25 μl of dH2 O added to give a final volume of 50 μl. To one half of each sample 2 μl of endoglycosidase H (endo H, 1 unit/ml, Boehringer Mannheim Ltd., Lewes, Sussex, U.K.) was added and the other half left untreated. […]

[10] = tested on: cholera toxin binding sites on H9 cells; assay type: cell-based, human; settings: h9 cells, 4320 min
[11] = tested on: glycolipid biosynthesis in HL-60 cells; assay: Inhibition of glycolipid biosynthesis in HL-60 cells, [14C]-palmitic acid labelling, 1D-TLC; assay type: cell-based, human;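 also: cells cultured 24 h with or without test compound, total cellular lipids resolved by one-dimensional TLC and detected by autoradiography, inhibition shown as missing Glc-Cer and gangliosides versus untreated cells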
[12] = tested on: α-glucosidase I; settings: cell culture systems, Karlsson et al.; cited from earlier work
[13] = tested on: oligosaccharide biosynthesis in BW5147 cells; assay: Glycopeptide analysis by Con A-SEPHAROSE chromatography, BW5147 cells; assay type: cell-based, murine
[14] = tested on: glycolipid and phospholipid species in HL-60 cells; assay: 2D-TLC analysis of total HL-60 lipids labelled with [14C]-palmitic acid; assay type: cell-based, human; settings: 2D-TLC (FIG. 2)
Description: 2D-TLC separation was made of total HL-60 lipids labelled with [^14 C]-palmitic acid. Cells were treated with either 0.5 mM NB-DNJ or NB-DGJ or untreated (UT). Lipids were assigned as follows (untreated cells, lefthand panel, FIG. 2A): 1, gangliosides; 2, lysophospatidylcholine; 3, ceramide phosphorylcholine; 4, ceramide phosphorylethanolamine; 5, phospatidylcholine; 6, phosphatidylinositol; 7, phosphatidylethanolamine; 8, phosphatidylglycerol; 9, diglycosylceramide; 10, monoglycosylceramide; 11, cholesterol/fatty acids/neutral lipids; N and N* are unknowns; and 0 is the sample origin. Following NB-DNJ and NB-DGJ treatment (middle and righthand panels, FIGS. 2B and 2C, respectively) species 1 (gangliosides);9 (diglycosylceramide); 10 (monoglycosylceramide) and N* (unknown) were absent. The radiolabelled lipids were visualized by autoradiography.
HL-60 cells were cultured by conventional procedure as previously described by Platt et al., Eur. J. Biochem. 208, 187-193 (1992). HL-60 cells at 5×10^4 cells/ml were cultured in the presence or absence of imino sugars for 24 hr. For labelling, the two dimensional thin layer chromatography (2D-TLC) conventional method of Butters and Hughes was followed [In Vitro 17, 831-838 (1981)]. Briefly, [^14 C]-palmitic acid (56.8 mCi/mmol, ICN/Flow) was added as a sonicated preparation in foetal calf serum (FCS, Techgen, London, U.K., 0.5 μCi/ml) and the cells cultured for a further 3 days maintaining the imino sugars in the medium. The cells were harvested, washed three times with phosphate buffered saline (PBS), extracted in 1 ml chloroform:methanol (2:1 v/v) and separated by 1 dimensional TLC, loading equal counts (1D-TLC, chloroform:methanol:water (65:25:4)). For two dimensional separations the one dimensional separation was performed as described above, the plate dried overnight under vacuum and separated in the second dimension using a solvent of tetrahydrofuran: dimethoxymethane:methanol:water (10:6:4:1). Plates were air dried and exposed to Hyperfilm-MP high performance autoradiography film (Amersham).

SMILES: CCCCCCCN1C[C@H](O)[C@@H](O)[C@@H](O)[C@H]1CO [N-heptyldeoxygalactonojirimycin]
- affinity towards certain β-glucosidases [1]: modest increase in the affinity

SMILES: CCCCN1C[C@H](O)[C@@H](O)[C@H](O)[C@H]1CO [NB-DNJ, N-Butyldeoxynojirimycin]
- Total 3H-mannose recovered ([2]; HL-60): 913095 cpm
- Bi-antennary ([2]; HL-60, percentage of radiolabelled glycopeptides eluted with 10 mM methylglucoside): 20.0%
- Oligo-mannose & hybrid ([2]; HL-60, percentage of radiolabelled glycopeptides eluted with 500 mM methylmannoside): 60.5%
- Tetra- & Tri-antennary ([2]; HL-60, percentage of radiolabelled glycopeptides non-bound): 19.5%
- glycopeptide profile by Con A-SEPHAROSE chromatography ([2]; HL-60 and BW5147): changes the affinity of glycopeptides
- proportion of unbound glycans (tetra- and tri-antennary species) ([2]; HL-60 and BW5147): decreases
- proportion of high mannose/hybrid glycans tightly bound to Con A-SEPHAROSE ([2]; HL-60 and BW5147, eluted with 500 mM methylmannoside): increase
- IC50 [3]: 2.95 µM
- cytotoxicity [4]: non-cytotoxic
- endo H sensitivity of high mannose oligosaccharides on gp120 [5]: fully sensitive to endo H
- Glc-Cer accumulation [6]: accumulated Glc-Cer
- glycolipid accumulation in lysosomes [7]: prevented the glycolipid accumulation
- IC50 [8]: 0.36 µM
- endo H sensitivity of gp120 N-linked glycans [9]: fully endo H sensitive
- reduction in cholera toxin binding [10]: approximately 90%
- lipid species whose biosynthesis was inhibited ([11]; HL-60, 500 μM, 1D-TLC): inhibited the biosynthesis of Glc-Cer, gangliosides and an unknown lipid species
- inhibition of glycolipid biosynthesis ([11]; HL-60, 500 μM, 1D-TLC (FIG. 1)): specifically inhibited glycolipid biosynthesis
- effect of N-alkyl chain length on inhibition of glycolipid biosynthesis (loss of detectable Glc-Cer) ([11]; HL-60, 0.5 mM, 1D-TLC (FIG. 4)): completely inhibited glycolipid biosynthesis
- minimal effective concentration ([11]; Homo sapiens, HL-60, 1D-TLC (FIG. 3), partial inhibition, read-out: concentrations as low as which partial inhibition occurred): 0.5 to 5 µM
- concentration for α-glucosidase I inhibition [12]: 0.5 mM
- Total 3H-mannose recovered [13]: 686026 cpm
- Bi-antennary ([13]; percentage of radiolabelled glycopeptides eluted with 10 mM methylglucoside): 4.9%
- Oligo-mannose & hybrid ([13]; percentage of radiolabelled glycopeptides eluted with 500 mM methylmannoside): 68.3%
- Tetra- & Tri-antennary ([13]; percentage of radiolabelled glycopeptides non-bound): 26.8%
- gangliosides, unknown lipid (N*), mono and dihexaside species following treatment ([14]; HL-60, 0.5 mM): absent
- depletion of glycolipid species ([14]; HL-60, 500 μM): total depletion of glycolipid species
